This note sets out measurements from patent US20260124170A1, “PHARMACEUTICAL COMPOSITION COMPRISING METABOLITE OF ENAVOGLIFLOZIN, AND USE THEREOF” (DAEWOONG PHARMACEUTICAL CO., LTD., priority 2022, published 2026).

Entries after “also recorded” stand apart in the source; their conditions may differ.

Usually IC50 stands for the concentration at which inhibition is half-maximal. Low values mean greater potency in that assay, high ones weaker potency in that assay. One may read the half-life as how long it takes for the measured level to halve. Read a low half-life as rapid decline.

Data set [1] concerns the target T1, SGLT2 (Homo sapiens, UniProt P31639).
T1 construct: expressed in transfected cells
T1 sequence (P31639 1-672): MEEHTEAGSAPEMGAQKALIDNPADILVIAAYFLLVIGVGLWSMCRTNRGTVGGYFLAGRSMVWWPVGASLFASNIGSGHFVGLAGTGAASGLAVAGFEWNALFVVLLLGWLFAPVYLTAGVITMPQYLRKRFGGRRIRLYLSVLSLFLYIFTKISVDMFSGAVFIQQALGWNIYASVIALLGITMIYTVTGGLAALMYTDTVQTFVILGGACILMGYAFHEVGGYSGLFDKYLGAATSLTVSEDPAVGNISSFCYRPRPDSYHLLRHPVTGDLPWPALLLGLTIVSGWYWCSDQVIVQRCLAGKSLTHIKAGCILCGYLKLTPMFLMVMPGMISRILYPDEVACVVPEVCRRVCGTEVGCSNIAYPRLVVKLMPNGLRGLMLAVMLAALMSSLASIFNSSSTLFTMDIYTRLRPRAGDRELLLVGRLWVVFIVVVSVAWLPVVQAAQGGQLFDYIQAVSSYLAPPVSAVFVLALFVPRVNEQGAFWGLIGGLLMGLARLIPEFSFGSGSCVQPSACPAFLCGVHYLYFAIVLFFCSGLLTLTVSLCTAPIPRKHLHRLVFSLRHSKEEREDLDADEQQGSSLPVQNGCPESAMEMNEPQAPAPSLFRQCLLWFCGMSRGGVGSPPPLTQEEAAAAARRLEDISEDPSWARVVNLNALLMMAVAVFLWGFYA
As to the kind of experiment: Applicant's preliminary study of SGLT2 inhibition, intracellular retention and activity recovery. The class given is cell-based.

In data set [2] the target is T1, SGLT2. Description: Inhibition of [14C]AMG uptake in SGLT2-overexpressing CHO cells. As to conditions: for IC50: CHO-SGLT2 cells, 10 μM [14C]AMG, 2 h, 37° C.; for IC50 ratio (SGLT1/SGLT2): ratio of SGLT1 IC50 to SGLT2 IC50. Format: cell-based. As for the experimental part:
The evaluation was performed in the same manner as the evaluation of SGLT1 inhibition, except that an SGLT2-overexpressing cell line (CHO-SGLT2 stable cells) was used, and the inhibitory evaluation substances described below were used.

In data set [3] the test system is STZ-induced type 1 diabetic rats. As to the kind of experiment: Oral glucose tolerance test in type 1 diabetic rat model. Format: in vivo. As to conditions: for Blood glucose level in OGTT: glucose 2 g/kg oral. As for the experimental part:
(§1) STZ was administered to Sprague Dawley (SD) male 5-week-old rats on day 0 (G2 to G7, excluding G1), and non-fasting blood glucose levels were measured on day 3 to determine whether type 1 diabetes was induced. On day 7, the experimental substances were administered to each group, and blood and urine samples were collected at 6 h, 24 h, 48 h, and 72 h to measure non-fasting blood glucose levels. On day 14 of the experiment, the experimental animals were fasted for 16 h, and on day 15, 2 g/kg of glucose solution was orally administered after the experimental substances were administered. Thereafter, blood glucose levels were measured at 15, 30, 60, 90, and 120 minutes after glucose administration. After blood collection, the serum was separated, and the IL-6 inflammatory response was evaluated using an interleukin-6 (IL-6) enzyme-linked immunosorbent assay (ELISA) kit.

The subject of another data set is interleukin-6 (IL-6). Description: Serum IL-6 ELISA in type 1 diabetic rat model. Format: in vivo. The settings on record: STZ rats, 6, 24, 48, 72 hours after administration. As for the experimental part:
as §1
A general note: ELISA stands for enzyme-linked immunosorbent assay.

The subject of data set [4] is STZ-induced type 1 diabetic rats. Description: Non-fasting blood glucose in type 1 diabetic rat model. The class given is in vivo. As to conditions: 1 mg/kg single intravenous dose. As for the experimental part:
as §1

In a further data set the test system is normal rats. Description: Urinary glucose excretion (UGE) after intravenous administration. As to conditions: 1 mg/kg intravenous, 6-72 hours. Format: in vivo, rat. As for the experimental part: Enavogliflozin, M1, or M2 was intravenously administered once to normal rats, and antidiabetic efficacy was evaluated.
To perform the oral glucose tolerance test (OGTT) and examine urinary glucose excretion (UGE), enavogliflozin, M1, or M2 was administered intravenously to male 8-week-old normal rats at a dose of 1 mg/kg, and then a glucose solution (2 g/kg) was administered to load blood sugar. The blood sugar level was measured before glucose solution administration and at 5, 10, 15, 20, 30, 40, 60, 90, and 120 minutes after the administration to evaluate oral glucose tolerance. In addition, the UGE was evaluated by measuring the amount of glucose excreted in the urine 6, 24, 48, and 72 hours after the administration of the glucose solution.

Data set [5] is described as follows: Half-life of M2 (rapid dissipation). As to conditions: in vivo.

Take `OC[C@H]1O[C@@H](c2cc(Cc3ccc(C4CC4)cc3)c(Cl)c3c2CCO3)[C@H](O)[C@@H](O)[C@@H]1O` [Enavogliflozin, (2S,3R,4R,5S,6R)-2-(7-chloro-6 (4-cyclopropylbenzyl)-2,3-dihydrobenzofuran-4-yl)-6-(hydroxymethyl)tetrahydro-2H-pyran-3,4,5-triol]: on SGLT2 [1] (after culturing for 24 hours, compared to dapagliflozin and ipragliflozin), the “Amount of drug remaining in the cells” value is “significantly higher”. Moreover, the “Inhibition mechanism of SGLT2 (Dixon plot and Replot)” value on SGLT2 [1] (preliminary study) is “reversible competitive inhibition mechanism”. For the same molecule, at SGLT2 [1] (pretreatment for up to two hours, preliminary study), the “Change in inhibition after pretreatment” value is on record as “no change in inhibition”. At SGLT2 [2], the half-inhibitory concentration (IC50) stood at 0.34 ± 0.08 nM and the “IC50 ratio (SGLT1/SGLT2)” value is recorded as 2538. Further, in data set [3] (STZ rats, 1 mg/kg), the “Blood glucose level in OGTT” value was “lowering of the blood glucose level was observed”. Besides, the “Change in IL-6 level” value in the data set with interleukin-6 (IL-6) was “slight decrease”.

As for `OC[C@H]1O[C@@H](c2cc(Cc3ccc(C4CC4)cc3)c(Cl)c3c2CC(O)O3)[C@H](O)[C@@H](O)[C@@H]1O` (stereo partly drawn) [M1, (2S,3R,4R,5S,6R)-2-(7-chloro-6-(4-cyclopropylbenzyl)-2-hydroxy-2,3-dihydrobenzofuran-4-yl)-6-(hydroxymethyl)tetrahydro-2H-pyran-3,4,5-triol], on SGLT2 [2], half-maximal inhibition (IC50) required 4.71 ± 0.69 nM and the “IC50 ratio (SGLT1/SGLT2)” value amounted to 6.0. In data set [3] (STZ rats, 1 mg/kg), the “AUC of blood glucose in OGTT” value was “best oral glucose tolerance improvement effect”; the “Blood glucose level in OGTT” value was “fastest and strongest blood glucose lowering effect”. Also, in data set [3] (STZ rats, 0.01, 0.1, 1 mg/kg), the “Dose dependence of glucose tolerance in OGTT” value is reported as “dose-dependent improvement in glucose tolerance”. Besides, the “Non-fasting blood sugar level” value in data set [4] is listed as “lowest blood sugar level at 48 hours after administration”. Besides, the “Urinary glucose excretion (UGE)” value in the data set with normal rats is given as “UGE was observed from six hours after intravenous administration; also recorded: similar”. Also, the “Change in IL-6 level” value in the data set on interleukin-6 (IL-6) is on record as “significant decrease in all dose groups”.

The molecule `OC[C@H]1O[C@@H](c2cc(Cc3ccc(C4(O)CC4)cc3)c(Cl)c3c2CCO3)[C@H](O)[C@@H](O)[C@@H]1O` [M2, (2S,3R,4R,5S,6R)-2-(7-chloro-6-(4-(1-hydroxycyclopropyl)benzyl)-2,3-dihydrobenzofuran-4-yl)-6-(hydroxymethyl)tetrahydro-2H-pyran-3,4,5-triol] gave a half-life in data set [5] of 48 min. Also, at SGLT2 [2], it took 3.02 ± 0.36 nM to reach half-maximal inhibition (IC50) and the “IC50 ratio (SGLT1/SGLT2)” value was 402. Besides, the “Urinary glucose excretion (UGE)” value with normal rats was “UGE was observed from six hours after intravenous administration; also recorded: less glucose was excreted than enavogliflozin and M1 for up to 24 hours”.
